Assay in all cases: Growth inhibition of transformed PPO-deficient E. coli BT3(ΔPPO) on LB agar medium
One assay has as its system CyPPO2. The format is cell-based, Oscillatoria nigro-viridis PCC 7112. The following applies: 37° C., 16~20 hours. The text has this: (§1) To test herbicide resistance of CyPPO2, CyPPO4, CyPPO8 and CyPPO12 isolated in Example 1, PPO-deficient BT3 E. coli [hereinafter, referred to as BT3(ΔPPO)] was transformed with CyPPO2, CyPPO4, CyPPO8 or CyPPO12 gene, respectively and then cultured in the presence of herbicides to examine growth inhibition of the transformed E. coli. As a negative control, Arabidopsis thaliana-derived wild-type PPO (wild-type AtPPO1) was used, and wild-type AtPPO1 has sensitivity to PPO-based herbicides and its sequence information is available in GeneBank accession no. AX084732 (a nucleotide sequence of the gene is represented by SEQ ID NO: 10, and an amino acid sequence thereof is represented by SEQ ID NO: 9). As a positive control, Mutant AtPPO1 was used, in which amino acid replacements of Y426M (replacement of tyrosine by methionine at position 426) and S305L (replacement of serine by leucine at position 305) occur in the amino acid sequence of the wild-type AtPPO1 (an amino acid sequence is represented by SEQ ID NO: 11) (Li X, Volrath S L., N D B. G., Chilcott C E, Johnson M A, Ward E R, Law M D (2003) Development of protoporphyrinogen oxidase as an efficient selection marker for Agrobacterium tumefaciens-mediated transformation of maize. Plant physiology 133:736-747).
(§2) BT3(ΔPPO) strain was provided by Hokkaido University (Japan) and it is an E. coli strain which is deficient in hemG-type PPO and has Kanamycin resistance (Watanabe et al., (2001) Dual targeting of spinach protoporphyrinogen oxidase II to mitochondria and chloroplasts by alternative use of two in-frame […] codons. JBC 2047420481).
(§3) HVE-50 autoclave from Hirayama, HS2100A electronic scale from Hansung Instrument, CB-30V clean bench from Jeio Tech, JSI-200CL incubator from JSR, 1210 type UV-visible spectrophotometer from Thermo Fisher Scientific, MQ-200 photometer from Apogee, and Bio-Rad MyCycler as PCR machine were used. The autoclave was used under conditions of 121° C. and 15 minutes, and the incubator was used at 37° C. with lighting of 160˜200 μmol m^−2 s^−1 for a culture time of 14˜20 hours. LB medium (10 g/L of Bacto-Tryptone, 5 g/L of Yeast extract, 10 g/L of sodium chloride, 15 g/L of Bacto agar) and an antibiotic Chloramphenicol (Duchefa) were used.
(§4) To clone each of the CyPPO2, CyPPO4, CyPPO8 and CyPPO12 genes isolated and amplified in Example 1 into pACBB (its structure is shown in FIG. 2), 10 μl of a solution containing 4 μl of each PPO gene, […], 1 μl of 10× buffer A, 1 μl of 10× buffer B, 1 μl of ligase (RBC, 3 unit/μl) was prepared and allowed to react at 22° C. for 30 minutes. The reaction solution was added to 100 μl of DH5 alpha competent cells, and allowed to react on ice for 20 minutes and then left at 42° C. for 40 seconds. Thereafter, the cells were left on ice for 2 minutes, and then 1 ml of LB broth was added thereto, followed by incubation with shaking at 37° C. for 1 hour. The strains having each gene insert in the culture medium were harvested, and then cultured on LB agar medium containing chloramphenicol.
(§5) For seed culture of E. coli transformed with respective genes, single colonies thereof were cultured in 3 ml of LB broth containing chloramphenicol overnight, and each 100 μl thereof was sub-cultured in 3 ml of fresh LB broth until absorbance (OD600) reached 0.5˜1. They were diluted with LB broth to absorbance (OD600) of 0.5. 10-fold dilution of this diluted solution was performed with LB broth five times. Next, 10 μl of the diluted solution of the transformed E. coli culture was dropped on LB agar medium (petri dish) containing chloramphenicol and a variety of herbicide stocks at different concentrations (0˜400 μM). The LB agar plates were incubated at 37° C. At 16˜20 hours after culture, growth inhibition was examined with the naked eye. Further, growth inhibition of the strains cultured in a medium containing Tiafenacil was examined under light (lighting of 169 μmol m^−2s^−1) and dark conditions.

A further assay has as its system CyPPO4. The format is cell-based, Lyngbya sp. PCC 8106. Conditions: 37° C., 16~20 hours.
Excerpt: as §1, §2, §3, §4, §5

Another assay deals with T1, Mutant AtPPO1 (Arabidopsis thaliana, UniProt P55826, S305L/Y426M).
T1 construct: expressed in transfected cells; host or cells: E. coli BT3(ΔPPO), pACBB vector
T1 sequence (P55826 35-537 S305L/Y426M): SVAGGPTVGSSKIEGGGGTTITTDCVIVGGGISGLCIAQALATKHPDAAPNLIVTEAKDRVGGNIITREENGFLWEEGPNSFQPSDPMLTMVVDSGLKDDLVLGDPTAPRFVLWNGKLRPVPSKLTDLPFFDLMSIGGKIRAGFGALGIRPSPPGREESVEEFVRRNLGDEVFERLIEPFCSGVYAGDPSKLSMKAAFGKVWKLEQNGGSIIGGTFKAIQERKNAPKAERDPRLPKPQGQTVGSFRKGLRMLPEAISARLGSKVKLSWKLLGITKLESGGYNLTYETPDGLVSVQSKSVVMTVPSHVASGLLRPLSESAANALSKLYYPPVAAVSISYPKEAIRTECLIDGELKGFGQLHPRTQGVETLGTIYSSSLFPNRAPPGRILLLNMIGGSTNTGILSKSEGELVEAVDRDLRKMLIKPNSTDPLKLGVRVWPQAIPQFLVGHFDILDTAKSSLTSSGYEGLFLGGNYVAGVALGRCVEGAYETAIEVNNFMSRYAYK
The format is cell-based. The following applies: 37° C., 16~20 hours.
Excerpt: as §1, §2, §3, §4, §5

A further assay relates to CyPPO12. In kind it is cell-based, Microcoleus vaginatus. Conditions: 37° C., 16~20 hours.
Excerpt: as §1, §2, §3, §4, §5

Another assay concerns the target T2, wild-type AtPPO1 (Arabidopsis thaliana, UniProt P55826).
T2 construct: expressed in transfected cells; host or cells: E. coli BT3(ΔPPO), pACBB vector
T2 sequence (P55826 35-537): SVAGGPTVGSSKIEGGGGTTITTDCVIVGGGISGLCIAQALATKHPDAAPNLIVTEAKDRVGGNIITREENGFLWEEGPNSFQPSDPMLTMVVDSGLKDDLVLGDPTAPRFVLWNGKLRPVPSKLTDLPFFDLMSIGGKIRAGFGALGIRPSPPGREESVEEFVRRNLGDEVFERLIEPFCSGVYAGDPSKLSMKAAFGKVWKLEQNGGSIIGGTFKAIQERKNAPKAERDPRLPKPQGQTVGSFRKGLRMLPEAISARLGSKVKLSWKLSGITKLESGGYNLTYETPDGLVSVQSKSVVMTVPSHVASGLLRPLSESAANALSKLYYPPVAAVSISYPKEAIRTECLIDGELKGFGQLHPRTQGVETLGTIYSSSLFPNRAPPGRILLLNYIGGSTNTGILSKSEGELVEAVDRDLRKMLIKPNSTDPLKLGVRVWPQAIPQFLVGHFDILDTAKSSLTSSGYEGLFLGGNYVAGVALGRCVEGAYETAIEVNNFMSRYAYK
The format is cell-based.
Excerpt: as §1, §2, §3, §4, §5

Where [1] appears, read: LB agar medium, 37° C., 16~20 hours.

Some results are limits rather than exact numbers.

Regarding `O=C(O)c1cc(Oc2ccc(C(F)(F)F)cc2Cl)ccc1[N+](=O)[O-]` [Acifluorfen], the “concentration at which growth inhibition was hardly observed” value in the assay on CyPPO2 and with CyPPO4 was 400 µM throughout.

For `C=CCOC(=O)C(C)(C)OC(=O)c1cc(-n2c(=O)cc(C(F)(F)F)n(C)c2=O)ccc1Cl` [Butafenacil], the “concentration at which growth inhibition was hardly observed” value in the assay on CyPPO2 was 25 µM. The “concentration at which growth inhibition was not / hardly observed” value on Mutant AtPPO1 is 25 µM.

As to `C#CCN1C(=O)COc2cc(F)c(N3C(=O)C4=C(CCCC4)C3=O)cc21` [Flumioxazin], the “concentration at which growth inhibition was hardly observed” value in the assay with CyPPO2 and in the assay on CyPPO4 was 25 µM each time. The “concentration at which growth inhibition was not / hardly observed” value in the assay with CyPPO12 was determined as 25 µM.

`COC(=O)CSc1cc(/N=c2\sc(=O)n3n2CCCC3)c(F)cc1Cl` [Fluthiacet-methyl]: in the assay with CyPPO2, the “concentration at which growth inhibition was hardly observed” value was 400 µM.

In the case of `CS(=O)(=O)NC(=O)c1cc(Oc2ccc(C(F)(F)F)cc2Cl)ccc1[N+](=O)[O-]` [Fomesafen], the “concentration at which growth inhibition was hardly observed” value in the assay with CyPPO2 and in the assay on CyPPO4 was 400 µM in each case. Moreover, at wild-type AtPPO1 (setting [1]), the “concentration at which growth inhibition was observed” value turned out to be 5 µM. Further, at Mutant AtPPO1, the “concentration at which growth inhibition was not / hardly observed” value is not above 25 µM.

On to `CC(C)Oc1cc(-n2nc(C(C)(C)C)oc2=O)c(Cl)cc1Cl` [Oxadiazon], for which, in the assay on CyPPO2, the “concentration at which growth inhibition was hardly observed” value came to 400 µM. The “concentration at which growth inhibition began” value on wild-type AtPPO1 (setting [1]) turned out to be 0.5 µM. Further, the “concentration at which growth inhibition was not / hardly observed” value on Mutant AtPPO1 and in the assay with CyPPO12 was 25 µM each time.

Turning to `CCOc1cc(Oc2ccc(C(F)(F)F)cc2Cl)ccc1[N+](=O)[O-]` [Oxyfluorfen], the “concentration at which growth inhibition was hardly observed” value in the assay on CyPPO2 and in the assay on CyPPO4 was 400 µM in each case. Besides, at Mutant AtPPO1, the “concentration at which growth inhibition began” value was 5 µM.

For the compound `CC(C)=C1OC(=O)N(c2cc(OC3CCCC3)c(Cl)cc2F)C1=O` [Pentoxazone], the “concentration at which growth inhibition was hardly observed” value in the assay on CyPPO2 turned out to be 400 µM. In addition, the “concentration at which growth inhibition was not / hardly observed” value at Mutant AtPPO1 and with CyPPO12 was 25 µM in each case.

In the case of `C#CCN(C)c1c(C#N)cnn1-c1nn2c(c1Cl)CCCC2` [Pyraclonil], the “concentration at which growth inhibition was hardly observed” value in the assay on CyPPO2 was found to be 400 µM. Also, the “concentration at which the strain hardly grew” value on wild-type AtPPO1 (setting [1]) was 25 µM. Besides, the “concentration at which growth inhibition was not / hardly observed” value on Mutant AtPPO1 and in the assay with CyPPO12 was 25 µM throughout.

With `CCOC(=O)COc1cc(-c2nn(C)c(OC(F)F)c2Cl)c(F)cc1Cl` [Pyraflufen-ethyl], the “concentration at which growth inhibition was hardly observed” value in the assay on CyPPO2 amounted to 400 µM. In addition, at wild-type AtPPO1 (setting [1]), the “concentration at which growth inhibition began” value worked out at 0.5 µM. Besides, the “concentration at which growth inhibition was not / hardly observed” value on Mutant AtPPO1 and in the assay on CyPPO12 was 25 µM in each case.

For `CC(C)N(C)S(=O)(=O)NC(=O)c1cc(-n2c(=O)cc(C(F)(F)F)n(C)c2=O)c(F)cc1Cl` [Saflufenacil], the “concentration at which growth inhibition was hardly observed” value in the assay on CyPPO2 and in the assay with CyPPO4 was 25 µM in each case. For the same compound, the “concentration at which growth inhibition was not / hardly observed” value at Mutant AtPPO1 and in the assay with CyPPO12 was 25 µM each time.

On to `Cc1nn(-c2cc(NS(C)(=O)=O)c(Cl)cc2Cl)c(=O)n1C(F)F` [Sulfentrazone], for which the “concentration at which growth inhibition was hardly observed” value in the assay on CyPPO2 and in the assay with CyPPO4 was 400 µM each time. The “concentration at which growth inhibition began” value at wild-type AtPPO1 (setting [1]) was determined as 0.5 µM. Also, the “concentration at which growth inhibition was not / hardly observed” value at Mutant AtPPO1 and in the assay with CyPPO12 was 25 µM each time.

For `COC(=O)CCNC(=O)C(C)Sc1cc(-n2c(=O)cc(C(F)(F)F)n(C)c2=O)c(F)cc1Cl` (stereo not shown) [Tiafenacil], the “concentration at which growth inhibition was hardly observed” value in the assay on CyPPO2 and in the assay on CyPPO4 was 25 µM in each case. In addition, the “growth at 1 μM under dark condition” value at wild-type AtPPO1 (agar medium, 1 μM, dark condition) is “rather maintained”. Further, the “concentration at which growth was completely inhibited” value on wild-type AtPPO1 (agar medium, both light and dark conditions) is not below 5 µM. For the same compound, the “concentration at which growth was almost completely inhibited” value at wild-type AtPPO1 (agar medium, light condition) was found to be 1 µM. In addition, the “concentration at which growth inhibition was not / hardly observed” value on Mutant AtPPO1 and with CyPPO12 was 25 µM each time.

The record behind these values is patent US11130960B2, “Methods for conferring or enhancing herbicide resistance on plants and/or alga with protoporphyrinogen oxidase variants” (FARM HANNONG CO., LTD., priority 2014, dated 2021).
